Measurements published in paper PMC7999658, “Characterization of P-Glycoprotein Inhibitors for Evaluating the Effect of P-Glycoprotein on the Intestinal Absorption of Drugs” (Pharmaceutics, 2021).
Like-named read-outs stand apart in the source and are kept apart here.

Tests used:
[1] = topotecan 2 mg/kg po; for concentration at 30 min: FVB, mouse, oral, 2 mg/kg
Procedure: Food and water were available ad libitum.
The flow rate was 1.0 mL/min.

BCRP = target: T1, BCRP (Homo sapiens, UniProt Q9UNQ0); assay: Inhibition of BCRP-mediated transport of mitoxantrone across Caco-2 cell monolayers; details: Caco-2 monolayers
T1 sequence (Q9UNQ0 1-655): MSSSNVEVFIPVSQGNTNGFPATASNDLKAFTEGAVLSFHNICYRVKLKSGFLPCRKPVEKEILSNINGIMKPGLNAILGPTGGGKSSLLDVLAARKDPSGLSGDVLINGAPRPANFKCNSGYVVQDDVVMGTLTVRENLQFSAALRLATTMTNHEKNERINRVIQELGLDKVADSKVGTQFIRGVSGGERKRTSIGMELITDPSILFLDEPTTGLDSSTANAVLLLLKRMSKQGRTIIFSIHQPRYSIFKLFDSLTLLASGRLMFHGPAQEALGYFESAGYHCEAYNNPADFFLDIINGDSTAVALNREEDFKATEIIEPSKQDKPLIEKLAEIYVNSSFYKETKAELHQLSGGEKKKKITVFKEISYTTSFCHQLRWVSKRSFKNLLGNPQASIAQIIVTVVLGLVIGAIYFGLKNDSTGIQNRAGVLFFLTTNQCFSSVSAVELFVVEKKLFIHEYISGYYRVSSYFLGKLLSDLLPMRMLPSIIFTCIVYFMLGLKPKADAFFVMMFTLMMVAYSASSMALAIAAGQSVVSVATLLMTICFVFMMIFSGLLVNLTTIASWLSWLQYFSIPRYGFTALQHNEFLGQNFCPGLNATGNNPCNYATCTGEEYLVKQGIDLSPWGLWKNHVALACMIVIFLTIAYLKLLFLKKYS
Procedure: For transport experiments, Caco-2 cells were grown on a polyethylene terephthalate insert (0.4 μm pore size, 12 mm diameter) at 1.0 × 10^5 cells/well, and cultured for 14–21 days with the replacement of the medium once every 2 days. Caco-2 cells used in this study were within the passage range of 55 through 70.
(§1) The efflux ratio (ER) was calculated using Equation (3) ER = Papp,BA/Papp,AB(3) where Papp,AB and Papp,BA are the Papp values for AP-to-BL and BL-to-AP transport, respectively.
(§2) IC50 values of Papp,BA and ER were also determined using Equation (4).

P-gp [2] = test system: P-gp; design: method as in PMID 18678495; details: cited from earlier work
P-gp [3] = target: T2, P-gp (Homo sapiens, UniProt P08183); assay: Inhibition of P-gp-mediated transport of paclitaxel across Caco-2 cell monolayers; type: cell-based
T2 construct: host or cells: Caco-2
Procedure: Caco-2 cells from Dainippon Sumitomo Pharma (Osaka, Japan) were cultured in DMEM supplemented with 10% heat-inactivated fetal bovine serum, 1% antibiotic-antimycotic, 1% nonessential amino acids, and 2 mM L-glutamine [31]. Cells were maintained at 37 °C in 5% CO2/95% air and passaged upon reaching approximately 80% confluence using 0.25% trypsin/1 mM EDTA solution. For transport experiments, Caco-2 cells were grown on a polyethylene terephthalate insert (0.4 μm pore size, 12 mm diameter) at 1.0 × 10^5 cells/well, and cultured for 14–21 days with the replacement of the medium once every 2 days. Caco-2 cells used in this study were within the passage range of 55 through 70.
as §1, §2

[4] = paclitaxel 10 mg/kg po
[5] = for BA of paclitaxel: paclitaxel 20 mg/kg po vs 5 mg/kg IV
in vivo [6] = details: FVB, mouse
in vivo [7] = details: FVB, mouse, oral, 10 mg/kg
Caco-2 cell monolayers = assay: Caco-2 monolayer transport study: paracellular marker permeability and mass balance (% recovery); type: in vitro ADME, human; details: Caco-2 monolayers, lucifer yellow 100 μM
[8] = IC50 on Papp,BA of mitoxantrone, mitoxantrone 5 μM, 50% decrease of Papp,BA
[9] = Caco-2 monolayers, 50% decrease of efflux ratio, read-out: IC50 on ER of paclitaxel
[10] = Caco-2 monolayers, paclitaxel 5 μM, 50% decrease of Papp,BA, read-out: IC50 on Papp,BA of paclitaxel
[11] = Caco-2 monolayers, paclitaxel 5 μM, inhibitor concentration to achieve 50% increase of Papp,AB, read-out: IC50 on Papp,AB of paclitaxel
[12] = paclitaxel 20 mg/kg po, WT mice
[13] = portal vein plasma, po, 20 mg/kg
[14] = systemic (abdominal vein) plasma, po, 20 mg/kg
[15] = male, portal vein plasma, po, 20 mg/kg
[16] = male, systemic (abdominal vein) plasma, po, 20 mg/kg
[17] = systemic (abdominal vein) plasma
[18] = male, systemic (abdominal vein) plasma

T2 sequence (P08183 whole entry): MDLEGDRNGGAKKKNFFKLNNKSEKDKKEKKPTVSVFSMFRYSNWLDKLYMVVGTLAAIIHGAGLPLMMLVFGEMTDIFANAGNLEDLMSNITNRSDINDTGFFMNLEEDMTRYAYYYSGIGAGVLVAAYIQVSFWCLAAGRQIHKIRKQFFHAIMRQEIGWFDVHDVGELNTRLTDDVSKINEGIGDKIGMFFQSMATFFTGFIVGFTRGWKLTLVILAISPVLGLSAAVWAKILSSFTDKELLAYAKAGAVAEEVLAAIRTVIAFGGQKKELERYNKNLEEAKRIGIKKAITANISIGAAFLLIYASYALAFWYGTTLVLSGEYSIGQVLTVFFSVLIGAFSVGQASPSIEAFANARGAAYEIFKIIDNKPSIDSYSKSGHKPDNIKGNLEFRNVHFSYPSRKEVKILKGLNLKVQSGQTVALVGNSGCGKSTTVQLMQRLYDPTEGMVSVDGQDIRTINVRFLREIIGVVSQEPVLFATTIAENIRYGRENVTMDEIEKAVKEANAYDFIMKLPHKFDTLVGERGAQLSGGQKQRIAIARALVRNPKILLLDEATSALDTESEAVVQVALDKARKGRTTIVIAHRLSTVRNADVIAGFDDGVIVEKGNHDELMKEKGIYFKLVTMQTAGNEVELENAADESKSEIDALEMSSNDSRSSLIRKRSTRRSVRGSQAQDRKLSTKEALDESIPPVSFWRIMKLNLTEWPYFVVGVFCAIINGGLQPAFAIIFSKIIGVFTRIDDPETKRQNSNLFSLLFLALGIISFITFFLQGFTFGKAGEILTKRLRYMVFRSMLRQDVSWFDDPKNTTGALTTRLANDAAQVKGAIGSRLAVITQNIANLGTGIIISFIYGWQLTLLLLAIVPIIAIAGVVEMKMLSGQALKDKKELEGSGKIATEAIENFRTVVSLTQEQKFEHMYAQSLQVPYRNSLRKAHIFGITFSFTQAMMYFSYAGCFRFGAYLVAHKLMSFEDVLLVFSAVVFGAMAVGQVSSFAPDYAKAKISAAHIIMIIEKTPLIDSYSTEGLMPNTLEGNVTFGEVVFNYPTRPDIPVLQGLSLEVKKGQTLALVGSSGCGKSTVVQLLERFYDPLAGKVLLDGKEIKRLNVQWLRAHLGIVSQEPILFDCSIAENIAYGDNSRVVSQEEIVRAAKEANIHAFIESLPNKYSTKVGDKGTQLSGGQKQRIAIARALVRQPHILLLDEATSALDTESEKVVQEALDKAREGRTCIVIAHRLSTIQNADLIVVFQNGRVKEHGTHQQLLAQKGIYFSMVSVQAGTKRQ

Compound: CC[C@@]1(O)C(=O)OCc2c1cc1n(c2=O)Cc2cc3c(CN(C)C)c(O)ccc3nc2-1 [topotecan]
- concentration at 30 min ([1]; plasma (portal vein), Cpv of topotecan, mdr1a/1b KO mice): 236 ± 30 nM
- concentration at 30 min ([1]; plasma (systemic circulation, abdominal vein), Csys of topotecan, bcrp KO mice): 398 ± 88 nM
- concentration at 30 min ([1]; plasma (systemic circulation, abdominal vein), Csys of topotecan, mdr1a/1b KO mice): 207 ± 28 nM
- concentration at 30 min ([1]; portal vein plasma, Cpv of topotecan, bcrp KO mice): 469 nM
- concentration at 30 min ([1]; male, plasma (systemic circulation, abdominal vein), Csys of topotecan, WT mice, no inhibitor): 179 ± 25 nM
- concentration at 30 min ([1]; male, portal vein plasma, Cpv of topotecan, WT mice, no inhibitor): 196 ± 29 nM
- V of topotecan, bcrp KO mice versus WT mice ([1]; 30 min): approximately 4.1 fold
- V of topotecan, bcrp KO mice versus mdr1a/1b KO mice ([1]; 30 min): ~2.4 fold
- Absorption Rate V of topotecan ([1]; 30 min, WT mice, no inhibitor): 1.29 nmol/min/kg
- Cpv − Csys of topotecan ([1]; 30 min, WT mice, no inhibitor): 17.1 ± 5.7 nM
- Absorption Rate V of topotecan ([1]; 30 min, bcrp KO mice): 5.30 nmol/min/kg
- Cpv of topotecan ([1]; 30 min, bcrp KO mice): 469 ± 64 nM
- Cpv − Csys of topotecan ([1]; 30 min, bcrp KO mice): 70.5 ± 20 nM
- Absorption Rate V of topotecan ([1]; 30 min, mdr1a/1b KO mice): 2.17 nmol/min/kg
- Cpv − Csys of topotecan ([1]; 30 min, mdr1a/1b KO mice): 28.9 ± 8.4 nM

Compound: COc1cc2c(cc1OC)CN(CCc1ccc(NC(=O)c3cc(OC)c(OC)cc3NC(=O)c3cnc4ccccc4c3)cc1)CC2 [XR9576, N-(2-([(4-(2-[3,4-Dihydro-6,7-dimethoxy-2(1H)-isoquinolinyl]ethyl)phenyl)amino]carbonyl)-4,5-dimethoxyphenyl)-3-quinolinecarboxamide]
- Hill coefficient, ER of mitoxantrone (BCRP): 0.44 ± 0.05
- IC50 (BCRP; [8]): 1 ± 0.045 µM
- IC50 (BCRP; read-out: IC50 on ER of mitoxantrone, 50% decrease of efflux ratio): 0.531 ± 0.162 µM
- IC50 for P-gp-mediated Hoechst 33342 transport lower than that for BCRP-mediated Hoechst 33342 transport (P-gp [2]): approximately 20.1 fold
- Hill coefficient, ER of paclitaxel (P-gp [3]; Caco-2 monolayers): 3.41 ± 0.28
- basal-to-apical transport of paclitaxel (P-gp [3]; Caco-2 monolayers): significantly decreased
- IC50 (P-gp [3]; [9]): 0.046 ± 0.019 µM
- IC50 (P-gp [3]; [10]): 0.064 ± 0.04 µM
- IC50 (P-gp [3]; [11]): 0.234 ± 0.061 µM

Compound: CC(=O)O[C@H]1C(=O)[C@@]2(C)[C@H]([C@H](OC(=O)c3ccccc3)[C@]3(O)C[C@H](OC(=O)[C@H](O)[C@@H](NC(=O)c4ccccc4)c4ccccc4)C(C)=C1C3(C)C)[C@]1(OC(C)=O)CO[C@@H]1C[C@@H]2O [paclitaxel]
- V of paclitaxel, mdr1a/1b KO mice versus WT mice ([4]; 10 min): approximately 3.5 fold
- Absorption Rate V of paclitaxel ([4]; 10 min, WT mice, no inhibitor): 15.7 nmol/min/kg
- Cpv of paclitaxel ([4]; 10 min, WT mice, no inhibitor): 439 ± 98 nM
- Cpv − Csys of paclitaxel ([4]; 10 min, WT mice, no inhibitor): 216 ± 80 nM
- Absorption Rate V of paclitaxel ([4]; 10 min, mdr1a/1b KO mice): 54.3 nmol/min/kg
- Cpv of paclitaxel ([4]; 10 min, mdr1a/1b KO mice): 967 ± 191 nM
- Cpv − Csys of paclitaxel ([4]; 10 min, mdr1a/1b KO mice): 749 ± 165 nM
- V of paclitaxel, mdr1a/1b KO mice versus WT mice ([4]; 30 min): approximately 5.1 fold
- Absorption Rate V of paclitaxel ([4]; 30 min, WT mice, no inhibitor): 12.4 nmol/min/kg
- Cpv − Csys of paclitaxel ([4]; 30 min, WT mice, no inhibitor): 165 ± 61 nM
- Absorption Rate V of paclitaxel ([4]; 30 min, mdr1a/1b KO mice): 63.7 nmol/min/kg
- Cpv − Csys of paclitaxel ([4]; 30 min, mdr1a/1b KO mice): 847 ± 144 nM
- t1/2 of paclitaxel ([5]; paclitaxel 5 mg/kg IV, WT mice): 2.38 h
- AUCpv of paclitaxel, mdr1a/1b KO mice versus WT mice ([5]; paclitaxel 20 mg/kg po): 3.3 fold
- AUCsys of paclitaxel, mdr1a/1b KO mice higher than WT mice ([5]; paclitaxel 20 mg/kg po): approximately 2.8 fold
- BA of paclitaxel, mdr1a/1b KO mice versus WT mice ([5]; paclitaxel 20 mg/kg po): 2.5 fold
- Cmax of paclitaxel in portal vein, mdr1a/1b KO mice versus WT mice ([5]; paclitaxel 20 mg/kg po): 3.5 fold
- Cmax of paclitaxel in systemic circulation, mdr1a/1b KO mice versus WT mice ([5]; paclitaxel 20 mg/kg po): 2.7 fold
- FaFg of paclitaxel, mdr1a/1b KO mice versus WT mice ([5]; paclitaxel 20 mg/kg po): 4.0 fold
- BA of paclitaxel ([5]; WT mice): 11.7%
- BA of paclitaxel ([5]; mdr1a/1b KO mice): 29.0%
- FaFg of paclitaxel [5, 12]: 16.6%
- Fh of paclitaxel [5, 12]: 70.6
- FaFg of paclitaxel ([5]; paclitaxel 20 mg/kg po, mdr1a/1b KO mice): 66.3%
- t1/2 of paclitaxel ([5]; paclitaxel 20 mg/kg po, mdr1a/1b KO mice, pv): 1.25 h
- Cmax ([5]; read-out: Cmax of paclitaxel, paclitaxel 20 mg/kg po, mdr1a/1b KO mice, pv): 2520 nM
- AUC (in vivo [6]; plasma, iv, 5 mg/kg): 2.66 µM·h
- MRT (in vivo [6]; plasma, iv, 5 mg/kg): 1.47 h
- Vd (in vivo [6]; plasma, iv, 5 mg/kg): 4.15 L/kg
- clearance (in vivo [6]; plasma, iv, 5 mg/kg): 36.7 mL/min/kg
- half-life (in vivo [6]; plasma, iv, 5 mg/kg): 2.12 h
- AUC (in vivo [6]; [13]): 6.58 µM·h
- MRT (in vivo [6]; [13]): 2.16 h
- Tmax (in vivo [6]; [13]): 1 h
- k el (in vivo [6]; [13]): 0.000153 s⁻¹
- AUC (in vivo [6]; [14]): 3.09 µM·h
- Cmax (in vivo [6]; [14]): 1180 nM
- MRT (in vivo [6]; [14]): 3.09 h
- Tmax (in vivo [6]; [14]): 1 h
- k el (in vivo [6]; [14]): 9.72e-05 s⁻¹
- half-life (in vivo [6]; systemic plasma, po, 20 mg/kg): 2 h
- AUC (in vivo [6]; male, plasma, iv, 5 mg/kg): 2.32 µM·h
- MRT (in vivo [6]; male, plasma, iv, 5 mg/kg): 1.71 h
- Vd (in vivo [6]; male, plasma, iv, 5 mg/kg): 4.32 L/kg
- clearance (in vivo [6]; male, plasma, iv, 5 mg/kg): 42 mL/min/kg
- AUC (in vivo [6]; [15]): 2 µM·h
- Cmax (in vivo [6]; [15]): 730 nM
- MRT (in vivo [6]; [15]): 2.51 h
- Tmax (in vivo [6]; [15]): 1 h
- half-life (in vivo [6]; [15]): 1.62 h
- k el (in vivo [6]; [15]): 0.000119 s⁻¹
- AUC (in vivo [6]; [16]): 1.09 µM·h
- Cmax (in vivo [6]; [16]): 442 nM
- MRT (in vivo [6]; [16]): 2.29 h
- Tmax (in vivo [6]; [16]): 1 h
- k el (in vivo [6]; [16]): 0.000139 s⁻¹
- half-life (in vivo [6]; male, systemic plasma, po, 20 mg/kg): 1.37 h
- concentration at 10 min (in vivo [7]; portal vein plasma): 967 nM
- concentration at 30 min (in vivo [7]; portal vein plasma): 1090 ± 118 nM
- concentration at 10 min (in vivo [7]; [17]): 218 ± 100 nM
- concentration at 30 min (in vivo [7]; [17]): 245 ± 69 nM
- concentration at 10 min (in vivo [7]; male, portal vein plasma): 439 nM
- concentration at 30 min (in vivo [7]; male, portal vein plasma): 328 ± 41 nM
- concentration at 10 min (in vivo [7]; [18]): 223 ± 76 nM
- concentration at 30 min (in vivo [7]; [18]): 135 ± 41 nM

Compound: lucifer yellow
- Papp,AB (Caco-2 cell monolayers): 0.1 ×10⁻⁶ cm/s

Compound: CCOC/C=C/c1ccc(-c2nc(-c3ccc(NC(C)C)cc3)c(-c3ccc(NC(C)C)cc3)[nH]2)cc1 [OC144-093, (E)-4,4’-(2-(4-[3-ethoxyprop-1-en-1-yl]phenyl)-1H-imidazole-4,5-diyl)bis(N-isopropylaniline)]
- Hill coefficient, ER of mitoxantrone (BCRP): 3.61 ± 0.41
- transport of paclitaxel in Caco-2 cells on addition of inhibitor (P-gp [3]; 0.01-10 μM inhibitor): not changed

Compound: COc1cc(C(=O)C(=O)N2CCCC[C@H]2C(=O)OC(CCCc2cccnc2)CCCc2cccnc2)cc(OC)c1OC [VX-710, (S)-N-(2-Oxo-2-(3,4,5-trimethoxyphenyl)-acetyl)piperidine-2-carboxylic acid 1,7-bis(3-pyridyl)-4-heptyl ester]
- Hill coefficient, ER of mitoxantrone (BCRP): 0.46 ± 0.12
- IC50 (BCRP; IC50 on ER of mitoxantrone, 50% decrease of efflux ratio): 1.64 ± 0.52 µM
- IC50 (BCRP; [8]): 2.68 ± 0.031 µM
- Hill coefficient, ER of paclitaxel (P-gp [3]; Caco-2 monolayers): 1.68 ± 0.38
- IC50 (P-gp [3]; [9]): 0.871 ± 0.277 µM
- IC50 (P-gp [3]; [10]): 4.5 ± 0.084 µM
- IC50 (P-gp [3]; [11]): 2.68 ± 0.053 µM
